Experimental data published in patent US20120129811A1, “TRICYCLIC INHIBITORS OF PRO-MATRIX METALLOPROTEINASE ACTIVATION” (priority 2010, published 2012).

Molecular target: T1, MMP9 mediated gelatinase activity (Rattus norvegicus, UniProt P50282)
T1 construct: from tissue; host or cells: frozen liver sections of female Lewis rats
Assay: In situ zymography of gelatinase activity in livers of SCW-induced rats dosed with Compound-α
Type: in vivo
Conditions: for Intensity, Rat 1 / Intensity, Rat 2 / Intensity, Rat 3 / Intensity, Mean: SCW, liver; for Intensity, Mean: n=3
Text: In situ zymography provides an alternative approach to assess active MMP9 in tissues (Frederiks). Tissue sections are overlain with fluorescene-conjugated gelatin wherein the conjugation is sufficiently dense to cause the fluorescene to be dye-quenched (DQ). Proteolytic degradation of the DQ-gelatin releases the fluorescene from the quenching effect giving rise to bright green fluorescence at the site of degradation. Because in situ zymography requires the use of frozen sections, calcified tissues are problematic. However, an additional feature of the SCW arthritis model is the development of hepatic granulomatous disease (J Immunol; 1986; 137:2199-2209), and MMP9 reportedly plays a role in macrophage recruitment in the granulomas response to mycobacteria (Infect Immun; 2006; 74:6135-6144). Consequently, granulomatous livers from SCW-treated rats were assessed for active MMP9 by in situ zymography.
As described above, Female Lewis (LEW/N) rats, 5-6 weeks of age (80-100 g) were injected (i.p.) with saline or SCW PG-PS. On day 28, when the granulomatous response was well established, animals were sacrificed and livers were frozen in OCT cryo-sectioning medium and 10 μm sections were cut on a Cryome HM 500 M cryotome and mounted on glass microscope slides. Sections were air dried briefly. MMP9 was confirmed as the source of the gelatinase activity in the liver by treating liver sections with monoclonal antibodies directed against the active site of the two major gelatinases MMP9 and MMP2. Liver sections overlain with 50 μL of 100 μg/mL neutralizing mouse monoclonal antibodies directed against MMP9 (Calbiochem, clone 6-6B), or MMP2 (Millipore, clone CA-4001), or with PBS for 1 hr at room temperature. Tissues were rinsed once with PBS, blotted, and briefly air dried and then overlain with DQ-gelatin (Invitrogen) dissolved to 1 mg/mL in deionized water and then diluted 1:10 in 1% wt/vol low gelling point agarose type VII (Sigma) in PBS. The sections were covered with coverslips, incubated in the dark at room temperature for 20 min, and imaged on an Olympus IX80 inverted microscope fitted with fluorescence optics, using SlideBook™ imaging software (Intelligent Imaging Innovations, Inc., Philadelphia, Pa.; version 5.0). Fluorescence intensity was determined (Table 8). When compared to a saline-treated rat, gelatinase activity was abundantly expressed in granulomatous liver sections obtained from a rat with SCW arthritis.
Next, liver in situ zymography was used to assess the relative presence of active MMP9 in rats dosed with vehicle vs. Compound-α. Female Lewis (LEW/N) rats, 5-6 weeks of age (80-100 g) were injected (i.p.) with saline or SCW PG-PS. Commencing on day 25, randomized groups of rats (n=3 rats/group) received vehicle or 20 or 50 mg/kg Compound-α BID by oral gavage. Vehicle consisted of an aqueous mixture containing 2% (v:v) N-methylpyrrolidone, 5% (v:v) glycerine, and 20% (w:v) captisol. Treatment continued daily through the morning of day 28. Four hrs after the AM dose on day 28, rats were sacrificed and livers assessed for active MMP9 by in situ zymography (Table 9). Gelatinase activity was increased markedly in SCW-induced rats, but activity was reduced by approximately 80% in animals treated with 50 mg/kg Compound-α.

[1] = 20 mg/kg BID oral gavage Day 25-28
[2] = 50 mg/kg BID oral gavage Day 25-28

T1 sequence (P50282 20-708): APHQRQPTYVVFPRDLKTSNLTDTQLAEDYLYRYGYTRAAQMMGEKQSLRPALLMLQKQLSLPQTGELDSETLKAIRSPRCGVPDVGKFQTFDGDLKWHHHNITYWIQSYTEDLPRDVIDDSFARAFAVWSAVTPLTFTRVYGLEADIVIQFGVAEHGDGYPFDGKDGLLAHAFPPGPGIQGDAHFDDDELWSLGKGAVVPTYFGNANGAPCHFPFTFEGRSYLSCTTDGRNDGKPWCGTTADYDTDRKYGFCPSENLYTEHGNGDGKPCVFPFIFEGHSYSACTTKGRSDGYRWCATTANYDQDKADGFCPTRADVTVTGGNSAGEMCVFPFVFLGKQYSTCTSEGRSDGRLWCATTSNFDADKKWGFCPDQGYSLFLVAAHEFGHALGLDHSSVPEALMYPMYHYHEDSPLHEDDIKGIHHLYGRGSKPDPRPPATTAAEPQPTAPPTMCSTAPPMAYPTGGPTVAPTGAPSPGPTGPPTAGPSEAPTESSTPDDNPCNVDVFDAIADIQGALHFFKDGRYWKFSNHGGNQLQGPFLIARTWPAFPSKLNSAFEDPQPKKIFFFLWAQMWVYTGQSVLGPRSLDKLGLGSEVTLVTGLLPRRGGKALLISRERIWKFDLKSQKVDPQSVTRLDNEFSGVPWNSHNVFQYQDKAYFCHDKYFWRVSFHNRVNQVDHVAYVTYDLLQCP

Cc1nc(C)c(-c2csc(Nc3cc(S(N)(=O)=O)ccc3OC(C)C)n2)s1 [Compound α, 3-(2′,4′-Dimethyl-[4,5′]bithiazolyl-2-ylamino)-4-isopropoxy-benzenesulfonamide.HBr]
reduction of gelatinase activity in liver (50 mg/kg, SCW-induced rats, day 28): approximately 80% | Intensity, Rat 1 [1]: 43.0 RLU × 10^6 | Intensity, Rat 2 [1]: 69.0 RLU × 10^6 | Intensity, Rat 3 [1]: 53.7 RLU × 10^6 | Intensity, Mean [1]: 55.2 RLU × 10^6 | Intensity, Rat 1 [2]: 3.2 RLU × 10^6 | Intensity, Rat 2 [2]: 25.6 RLU × 10^6 | Intensity, Rat 3 [2]: 4.5 RLU × 10^6 | Intensity, Mean [2]: 11.1 RLU × 10^6
